Source: paper PMC10269165 (Antimicrobial Agents and Chemotherapy, 2023)
Like-named read-outs stand apart in the source and are kept apart here.

Columns and labels:
[1] = WST-1 cytotoxicity assay in HCT-8 cells; type: cell-based, human; conditions: human, HCT-8 cells (human ileocecal colorectal adenocarcinoma), read-out: Mean IC50 ± SEM, Cytotoxicity
Method: Compounds were tested for cytotoxicity in human ileocecal colorectal adenocarcinoma cells (HCT-8) (ATCC CCL-244; RRID:CVCL_2478) by using the cell proliferation reagent WST-1 (Roche) according to the manufacturer’s protocol. The WST-1 assay is a quantitative colorimetric assay for measurement of metabolically active cells. This assay is based on the reduction of the tetrazolium salt (WST-1) by viable cells. About 5 × 10^4 HCT-8 cells were seeded per well in 96-well plates and grown overnight in 200 μL of RPMI 1640 medium (without phenol red; Gibco) supplemented with 2.5 g/L of glucose, 1 mM sodium pyruvate, 1.5 g/L of sodium bicarbonate, 10% heat-inactivated FBS (Gibco), and 1× antibiotic-antimycotic (Gibco) at 37°C with 5% CO2 in a humidified incubator. Upon reaching 80 to 90% confluence, cells were treated with various concentrations of the test compounds for 24 h. Control wells received equivalent volumes of DMSO used in the reconstituted compounds. After 24 h of culture, 10 μL of the WST-1 reagent was added to each well, and the plates were incubated in the dark for 1 h at 37°C with 5% CO2. The plates were well agitated, and 150 μL of the medium from each well was transferred to a new clear flat-bottomed black 96-well plate (Corning). The absorbance was read at a test wavelength of 440 nm and a reference wavelength of 690 nm using a multimode microplate reader (Spectra Max iD3; Molecular Devices, USA). All of the reactions were prepared in triplicate. The dose-response curves were generated by nonlinear regression analysis with GraphPad PRISM software using control-normalized data to determine the half-maximal cytotoxicity (IC50) concentrations.

[2] = system: catechol O-methyltransferase (COMT); design: method as in PMID 15755652, doi:10.1007/s40495-018-0157-y; conditions: cited from earlier work
[3] = system: catechol O-methyltransferase (COMT); design: method as in PMID 15755652, doi:10.1007/s40495-018-0157-y; conditions: cited from earlier work; remark: listed apart in the source

Row | Structure (SMILES) | IC50 at 24 h [1] | inhibition of COMT catalytic activity [2] | inhibition of COMT catalytic activity [3]
1 | CO[C@@]12[C@H](COC(N)=O)C3=C(C(=O)C(C)=C(N)C3=O)N1C[C@H]1[C@@H]2N1C (stereo partly shown) [NSC56410] | 188 ± 4.19 µM | – | –
2 | O=c1c(O)cccc2cc(O)c(O)c(O)c12 [NSC35676, purpurogallin] | 566 ± 55.9 µM | inhibit the catalytic activity | inhibit the catalytic activity
